According to paper PMC6385203, “Mutations in the palm domain disrupt modulation of acid-sensing ion channel 1a currents by neuropeptides” (Scientific Reports, 2019):
“Also recorded” adds a separate entry of the source. Ends that are not written are not given here.

Assays:
ASIC1a E242C = assay: Modification of Cys mutant by MTSET; format: cell-based, human; settings: 1 mM MTSET 3 min, pH dependence of activation and SSD, n=4-6
Experimental: (§1) Figure S2. Modification of Cys mutants by MTSET. To determine whether exposure to MTSET modified specific Cys mutants, we applied pH protocols that detect shifts in the pH dependence of activation and of steady-state desen sitization (SSD) to ASIC1a-e xpressing oocytes, before and after a 3-min exposure to 1mM MTSET. a, illustration of the experimental protocol at the example of the E97C mutant. The acidic solution was applied once every minute, except during the incubation with MTSET. b, ratio of current amplitudes obtained at pH6.5 and pH5 from the conditioning pH7.4, as a measure of the pH dependence of activation, before (open bars) and after MTSET expo sure (red bars). c, ratio of the current amplitude at pH5 from the conditioning pH7.15 / the current amplitude at pH5 obtained from the conditioning pH7.4, as an indication of the pH dependence of SSD, n=4-6. *, p<0.05; **, p<0.01; ***, p<0.001; ****, p<0.0001; different between control and MTSET condition, […]
(§2) WT ASIC1a3,4. If a functional property is changed after MTSET incubation and its washout, it is concluded that the engineered Cys residue has been modified by MTSET. This analysis […]
(§3) (1 picture or pasted object on this page, not shown here)

ASIC1a E97C = assay: Modification of Cys mutant by MTSET; format: cell-based, human; settings: 1 mM MTSET 3 min, pH dependence of activation and SSD, n=4-6
Experimental: as §1, §2, §3

ASIC1a F302C = assay: Modification of Cys mutant by MTSET; format: cell-based, human; settings: 1 mM MTSET 3 min, pH dependence of activation and SSD, n=4-6
Experimental: as §1, §2, §3

ASIC1a S240C = assay: Modification of Cys mutant by MTSET; format: cell-based, human; settings: 1 mM MTSET 3 min, pH dependence of activation and SSD, n=4-6
Experimental: as §1, §2, §3

ASIC1a L280C = settings: L280C mutant; cited from earlier work
Description: (§4) Based on in silico docking, mutagenesis and functional validation, our study points to the side cavities of the central vestibule as the most probable binding sites for the peptide FRRFa. […] The 40-amino acid peptide toxin PcTx1 binds into the acidic pocket and to the subunit interface ...

[1] = test system: ENaC/degenerin ion channel family; settings: cited from earlier work
Description: (§5) FaNaC-like channels have been described in mollusks and Hydra[8]–[10], but not in mammals. Mammals express FMRFa-related peptides that exert their pharmacological actions mainly by binding to G protein-coupled receptors. Mammalian FMRFa-like peptides contain more than four residues. Since they ...

ASIC1a [2] = settings: cited from earlier work; for competition between functional effects: PcTx1 vs big dynorphin
Description: as §4

[3] = test system: ASIC1- and ASIC3-containing channels; settings: FMRFa and related peptides; cited from earlier work
Description: as §5

FaNaC = settings: molluscan FaNaC; cited from earlier work
Description: as §5

ASIC1a [4] = settings: cited from earlier work
Experimental: Currently it is not known where in the ASICs the RFa peptides bind. […] Our docking studies predicted possible b ... || ASIC1a function was measured by two-electrode voltage-clamp after recombinant expression in Xenopus oocytes. The channels were activated by a pH5 stimulation solution from a conditioning solution of pH7.4. […] We measured the rate of FRRFa unbinding, as the disappearance of the sustained current after a 50-s incubation with 50 μM FRRFa, as 0.025 ± 0.005 s^−1 (n = 8, Fig. 2b).

C[N+](C)(C)CCSS(C)(=O)=O [MTSET, [2-(trimethylamonium)ethyl] methanethiosulfonate]
modification by MTSET (ASIC1a E242C): evidence for modification by MTSET; also recorded: exposure to MTSET changes the properties of the mutants E97C, S240C and E242C | modification by MTSET (ASIC1a E97C): evidence for modification by MTSET; also recorded: exposure to MTSET changes the properties of the mutants E97C, S240C and E242C | modification by MTSET (ASIC1a F302C): evidence for modification by MTSET | modification by MTSET (ASIC1a S240C): evidence for modification by MTSET; also recorded: exposure to MTSET changes the properties of the mutants E97C, S240C and E242C | effect of MTSET modification on sustained current fraction (ASIC1a L280C): strongly increases the sustained current fraction

N=C(N)NC(=O)c1nc(Cl)c(N)nc1N [amiloride]
inhibition of ENaC/degenerin channels [1]: inhibited by amiloride

PcTx1: 40-amino acid peptide toxin PcTx1 (EDCIPKWKGCVNRHGDCCEGLECWKRRRSFEVCVPKTPKT; ends and bridges not checked; cysteine pairing not given here; UniProt P60514 1-40, looked up)
competition between functional effects (ASIC1a [2]): a competition between the functional effects of PcTx1 and the peptide big dynorphin

Phe-Met-Arg-Phe-amide [FMRFa]
effects on ASIC desensitization, sustained current and SSD [3]: slow the desensitization time course of ASIC1- and ASIC3-containing channels and induce a sustained (non-desensitizing) current as well as an acidic shift in the SSD pH dependence of ASIC1a | channel activation (FaNaC): activated by the neuropeptide Phe-Met-Arg-Phe-amide (FMRFa) | requirement of pre-application (ASIC1a [4]): affect ASIC1a currents only when pre-applied with the conditioning solution at pH 7.4

big dynorphin: a remotely related Arg-rich 32-amino acid peptide
competition between functional effects (ASIC1a [2]): a competition between the functional effects of PcTx1 and the peptide big dynorphin | modulation of ASIC1a (ASIC1a [2]): modulates ASIC1a in a similar way as RFa peptides do
